Source: US20050164210A1, “Regulated polymerase III expression systems and related methods” (priority 2004, published 2005)

Test system: VgEcR and RXR
Experiment: murA induction of the E/GRE/Hsmin promoter: GFP+ cells by fluorescent microscopy and FACS, Western blot of GAL4-Oct-2Q(Q→A) and EGFP
Format: cell-based
Settings: 72 h
Procedure: High titer virus were produced by calcium phosphate transfection of retroviral DNA constructs into the LinX amphotrophic retroviral packaging cell line (17) followed by incubation with dexamethasone/butyrate (1 μM/ml) of packagers at 32° C. for 3 days. Infections were carried out by harvesting supernatants from LinX packagers, filtered through a […] membrane (Millipore), followed by the addition of polybrene (8 μM) to supernatants, finally overlaying onto actively dividing host cells (70% confluent). Cells were gently spun at room temperature for 30 min, incubated at 32° C. for 6 h. […]
Western blot analysis and antibodies. […] Signal intensities were determined after background corrections by using Alpha-Imager 2000 Documentation and Analysis Software (Alpha Innotech, San Leandro, Calif.). The percentage reduction in band intensity for each concentration of murA was calculated relative to the uninduced samples and normalized against β-tubulin.
The ecdysone inducible system is comprised of three Moloney murine leukemia virus (MoMLV)-based retroviral vectors, the two vectors expressing nuclear receptors/transcription factors VgEcR and RXR, and a third construct, pEind-RNAi expressing a chimeric transactivator GAL4-Oct-2^Q(Q→A), and an internal ribosomal entry site (IRES) linked enhanced green fluorescence protein (EGFP) under an inducible promoter E/GRE/Hsmin (FIG. 1A). […]

## CC(C)CC[C@@H](O)[C@](C)(O)[C@H]1CC[C@@]2(O)C3=CC(=O)[C@]4(O)C[C@@H](O)[C@@H](O)C[C@]4(C)[C@H]3[C@H](O)C[C@]12C [murA, muristerone A]
5 μM murA, versus untreated controls
  Levels of GAL4-Oct-2Q(Q→A) and EGFP protein (Western blot): increased levels
Sorted stable cells, 0.5 μM murA (microscopy), 5 μM murA (FACS)
  GFP+ cells following induction with murA: > 95%
